The test deals with HT-29 cells. As to the kind of experiment: HT29 Cells 0FBS Assay In Vitro (TNF-α/SMAC mimetic/zVAD-FMK induced necroptosis, CellTiter-Glo cell viability). The format is cell-based. To be noted: Homo sapiens, HT-29 cells, FBS free medium, TNF-α (10 ng/ml), SMAC mimetic (6 uM), zVAD-FMK (10 μM), 20 hours, geometric mean EC50. In a few lines: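 Viability was measured by ATP luminescence (CellTiter-Glo) after 20 h at 37° C of compound exposure in 10-point, 1:3 dilutions. Necroptosis in FBS-free HT-29 cultures was driven by a TNF-α (10 ng/ml), SMAC mimetic (6 μM) and zVAD-FMK (10 μM) cocktail. EC50 values are geometric means from duplicate curves.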
For orientation: Cellular ATP, detected with luciferase, serves as a proxy for viable cell number.

The mark [1] stands for this setting: read-out: Cell activity (EC50) of Compounds 117-281.
[2] abbreviates: read-out: Cell activity (EC50) of Compounds 1-116.

Molecules are shown by their SMILES. Where two headings read alike, the source gives them in different places.

A word on the EC50: it is the concentration that produces a half-maximal response. For `Cc1c(-c2cc(OC3CN(C(=O)N4N=CC[C@H]4c4cc(F)cc(F)c4)C3)c(F)cn2)nn(C)c1C(=O)O` [compound 245, (S)-3-(4-((1-(5-(3,5-difluorophenyl)-4,5-dihydro-1H-pyrazole-1-carbonyl)azetidin-3-yl)oxy)-5-fluoropyridin-2-yl)-1,4-dimethyl-1H-pyrazole-5-carboxylic acid], the EC50 under setting [1] was 0.1 to 100 nM.
Same read-out and setting: the result for `Cc1ncc(C#N)n1-c1cc(OC2CN(C(=O)N3N=CC[C@H]3c3cc(F)cc(F)c3)C2)c(F)cn1` [compound 143, (S)-1-(4-((1-(5-(3,5-difluorophenyl)-4,5-dihydro-1H-pyrazole-1-carbonyl)azetidin-3-yl)oxy)-5-fluoropyridin-2-yl)-2-methyl-1H-imidazole-5-carbonitrile] reads 0.1 to 100 nM; that for `Cc1nn(-c2ncc(F)c(OC3CN(C(=O)N4N=CC[C@H]4c4cc(F)cc(F)c4)C3)n2)c(C)c1C(N)=O` [compound 276, (S)-1-(4-((1-(5-(3,5-difluorophenyl)-4,5-dihydro-1H-pyrazole-1-carbonyl)azetidin-3-yl)oxy)-5-fluoropyrimidin-2-yl)-3,5-dimethyl-1H-pyrazole-4-carboxamide], 0.1 to 100 nM; that for `Cc1nn(-c2cc(OC3CN(C(=O)N4N=CC[C@H]4c4cc(F)cc(F)c4)C3)c(F)cn2)c(C)c1NC(=O)C1CCOCC1` [compound 138], 0.1 to 100 nM.
`Cc1c(-c2cc(OC3CN(C(=O)N4N=CC[C@H]4c4cc(F)cc(F)c4)C3)c(F)cn2)nn(C)c1C1=NCCN1` [compound 266, (S)-(5-(3,5-difluorophenyl)-4,5-dihydro-1H-pyrazol-1-yl)(3-((2-(5-(4,5-dihydro-1H-imidazol-2-yl)-1,4-dimethyl-1H-pyrazol-3-yl)-5-fluoropyridin-4-yl)oxy)azetidin-1-yl)methanone]: the EC50 under setting [1] was 0.1 to 100 nM.
For the molecule `CNC(=O)c1cnn(C)c1-c1cc(OC2CN(C(=O)N3N=CC[C@H]3c3cc(F)cc(F)c3)C2)c(F)cn1` [compound 67, (S)-5-(4-((1-(5-(3,5-difluorophenyl)-4,5-dihydro-1H-pyrazole-1-carbonyl)azetidin-3-yl)oxy)-5-fluoropyridin-2-yl)-N,1-dimethyl-1H-pyrazole-4-carboxamide], the EC50 under setting [2] is 0.1 to 100 nM.
For `Cc1c(S(C)(=O)=O)nn(C)c1-c1cc(OC2CN(C(=O)N3N=CC[C@H]3c3cc(F)cc(F)c3)C2)c(F)cn1` [compound 177, (5-(3,5-difluorophenyl)-4,5-dihydro-1H-pyrazol-1-yl)(3-((2-(1,4-dimethyl-3-(methylsulfonyl)-1H-pyrazol-5-yl)-5-fluoropyridin-4-yl)oxy)azetidin-1-yl)methanone], the EC50 under setting [1] lay within 0.1 to 100 nM.
For `Cn1ncc(CO)c1-c1cc(OC2CN(C(=O)N3N=CC[C@H]3c3cc(F)cc(F)c3)C2)c(F)cn1` [compound 78, (S)-(5-(3,5-difluorophenyl)-4,5-dihydro-1H-pyrazol-1-yl)(3-((5-fluoro-2-(4-(hydroxymethyl)-1-methyl-1H-pyrazol-5-yl)pyridin-4-yl)oxy)azetidin-1-yl)methanone], the EC50 under setting [2] fell in the range of 0.1 to 100 nM.
In the case of `N#Cc1cccn1-c1ncc(F)c(OC2CN(C(=O)N3N=CC[C@H]3c3cc(F)cc(F)c3)C2)n1` [compound 106, (S)-1-(4-((1-(5-(3,5-difluorophenyl)-4,5-dihydro-1H-pyrazole-1-carbonyl)azetidin-3-yl)oxy)-5-fluoropyrimidin-2-yl)-1H-pyrrole-2-carbonitrile], the EC50 under setting [2] lay within 0.1 to 100 nM.
Still for that read-out and setting: the result for `Cc1n[nH]c(C)c1-c1cc(OC2CN(C(=O)N3N=CC[C@H]3c3cc(F)cc(F)c3)C2)c(F)cn1` [compound 92, (S)-(5-(3,5-difluorophenyl)-4,5-dihydro-1H-pyrazol-1-yl)(3-((2-(3,5-dimethyl-1H-pyrazol-4-yl)-5-fluoropyridin-4-yl)oxy)azetidin-1-yl)methanone] reads 0.1 to 100 nM.
Turning to `Cc1nn(-c2cc(OC3CN(C(=O)N4N=CC[C@H]4c4cc(F)cc(F)c4)C3)c(F)cn2)c(C)c1CC(=O)N(C)C` [compound 239, (S)-2-(1-(4-((1-(5-(3,5-difluorophenyl)-4,5-dihydro-1H-pyrazole-1-carbonyl)azetidin-3-yl)oxy)-5-fluoropyridin-2-yl)-3,5-dimethyl-1H-pyrazol-4-yl)-N,N-dimethylacetamide], the half-maximal effective concentration (EC50) under setting [1] was in the range of 0.1 to 100 nM.
Still for that read-out and setting: the figure for `Cc1cn(C)nc1-c1cc(OC2CN(C(=O)N3N=CC[C@H]3c3cc(F)cc(F)c3)C2)c(F)cn1` [compound 219, (S)-(5-(3,5-difluorophenyl)-4,5-dihydro-1H-pyrazol-1-yl)(3-((2-(1,4-dimethyl-1H-pyrazol-3-yl)-5-fluoropyridin-4-yl)oxy)azetidin-1-yl)methanone] is 0.1 to 100 nM; for `CN(C)CC(=O)Nc1cnn(C)c1-c1cc(OC2CN(C(=O)N3N=CC[C@H]3c3cc(F)cc(F)c3)C2)c(F)cn1` [compound 122, (S)—N-(5-(4-((1-(5-(3,5-difluorophenyl)-4,5-dihydro-1H-pyrazole-1-carbonyl)azetidin-3-yl)oxy)-5-fluoropyridin-2-yl)-1-methyl-1H-pyrazol-4-yl)-2-(dimethylamino)acetamide] it is 0.1 to 100 nM.
The same measure, in the same setting: the result for `[2H]C1(c2cc(F)cc(F)c2)CC=NN1C(=O)N1CC(Oc2cc(-n3nc(C)c(C(N)=O)c3C)ncc2F)C1` (stereo not drawn) [compound 277, 1-(4-((1-(5-(3,5-difluorophenyl)-4,5-dihydro-1H-pyrazole-1-carbonyl-5-d)azetidin-3-yl)oxy)-5-fluoropyridin-2-yl)-3,5-dimethyl-1H-pyrazole-4-carboxamide] reads 0.1 to 100 nM; that for `Cc1ccc(C(N)=O)n1-c1cc(OC2CN(C(=O)N3N=CC[C@H]3c3cc(F)cc(F)c3)C2)c(F)cn1` [compound 161, (S)-1-(4-((1-(5-(3,5-difluorophenyl)-4,5-dihydro-1H-pyrazole-1-carbonyl)azetidin-3-yl)oxy)-5-fluoropyridin-2-yl)-5-methyl-1H-pyrrole-2-carboxamide], 0.1 to 100 nM; that for `Cc1nn(-c2cc(OC3CN(C(=O)N4N=CC[C@H]4c4cc(F)cc(F)c4)C3)c(F)cn2)c(C)c1S(=O)(=O)Nc1ccccc1` [compound 243, (S)-1-(4-((1-(5-(3,5-difluorophenyl)-4,5-dihydro-1H-pyrazole-1-carbonyl)azetidin-3-yl)oxy)-5-fluoropyridin-2-yl)-3,5-dimethyl-N-phenyl-1H-pyrazole-4-sulfonamide], 0.1 to 100 nM.
The same measure, in the same setting: the result for `Cc1nc(C(N)=O)sc1-c1cc(OC2CN(C(=O)N3N=CC[C@H]3c3cc(F)cc(F)c3)C2)c(F)cn1` [compound 189, (S)-5-(4-((1-(5-(3,5-difluorophenyl)-4,5-dihydro-1H-pyrazole-1-carbonyl)azetidin-3-yl)oxy)-5-fluoropyridin-2-yl)-4-methylthiazole-2-carboxamide] reads 0.1 to 100 nM.
Regarding `O=C(N1CC(Oc2cc(-c3ccn[nH]3)ncc2F)C1)N1N=CC[C@H]1c1cc(F)cc(F)c1` [compound 261, (S)-(5-(3,5-difluorophenyl)-4,5-dihydro-1H-pyrazol-1-yl)(3-((5-fluoro-2-(1H-pyrazol-5-yl)pyridin-4-yl)oxy)azetidin-1-yl)methanone], the EC50 under setting [1] lay in the range of 0.1 to 100 nM.
For the molecule `Cc1c(NCC2CC2)nn(C)c1-c1cc(OC2CN(C(=O)N3N=CC[C@H]3c3cc(F)cc(F)c3)C2)c(F)cn1` [compound 163, (S)-(3-((2-(3-((cyclopropylmethyl)amino)-1,4-dimethyl-1H-pyrazol-5-yl)-5-fluoropyridin-4-yl)oxy)azetidin-1-yl)(5-(3,5-difluorophenyl)-4,5-dihydro-1H-pyrazol-1-yl)methanone], the EC50 under setting [1] was in the range of 0.1 to 100 nM.
Regarding `Cc1ncn(C)c1-c1cc(OC2CN(C(=O)N3N=CC[C@H]3c3cc(F)cc(F)c3)C2)c(F)cn1` [compound 45, (S)-(5-(3,5-difluorophenyl)-4,5-dihydro-1H-pyrazol-1-yl)(3-((2-(1,4-dimethyl-1H-imidazol-5-yl)-5-fluoropyridin-4-yl)oxy)azetidin-1-yl)methanone], the EC50 under setting [2] is 0.1 to 100 nM.
Regarding `Cn1nc(NC(=O)C2CC2)cc1-c1cc(OC2CN(C(=O)N3N=CC[C@H]3c3cc(F)cc(F)c3)C2)c(F)cn1` [compound 137, (S)—N-(5-(4-((1-(5-(3,5-difluorophenyl)-4,5-dihydro-1H-pyrazole-1-carbonyl)azetidin-3-yl)oxy)-5-fluoropyridin-2-yl)-1-methyl-1H-pyrazol-3-yl)cyclopropanecarboxamide], the EC50 under setting [1] was in the range of 0.1 to 100 nM.
As to `Cc1cc(C(F)(F)F)nn1-c1cc(OC2CN(C(=O)N3N=CC[C@H]3c3cc(F)cc(F)c3)C2)c(F)cn1` [compound 170, (S)-(5-(3,5-difluorophenyl)-4,5-dihydro-1H-pyrazol-1-yl)(3-((5-fluoro-2-(5-methyl-3-(trifluoromethyl)-1H-pyrazol-1-yl)pyridin-4-yl)oxy)azetidin-1-yl)methanone], the EC50 under setting [1] lay in the range of 0.1 to 100 nM.
As for `Cc1nn(-c2cc(OC3CN(C(=O)N4N=CC[C@H]4c4cc(F)cc(F)c4)C3)c(F)cn2)c(C)c1CC(=O)NCCO` [compound 223, (S)-2-(1-(4-((1-(5-(3,5-difluorophenyl)-4,5-dihydro-1H-pyrazole-1-carbonyl)azetidin-3-yl)oxy)-5-fluoropyridin-2-yl)-3,5-dimethyl-1H-pyrazol-4-yl)-N-(2-hydroxyethyl)acetamide], the EC50 under setting [1] lay within 0.1 to 100 nM.
For the molecule `Cc1[nH]ncc1-c1ncc(F)c(OC2CN(C(=O)N3N=CC[C@H]3c3cc(F)cc(F)c3)C2)n1` [compound 90, (S)-(5-(3,5-difluorophenyl)-4,5-dihydro-1H-pyrazol-1-yl)(3-((5-fluoro-2-(5-methyl-1H-pyrazol-4-yl)pyrimidin-4-yl)oxy)azetidin-1-yl)methanone], under setting [2], the EC50 was 0.1 to 100 nM.

The values above are taken from patent publication US12655125B2 (SIRONAX LTD., priority 2020, dated 2026).
